The values that follow come from publication PMC10226132, “First-in-Class Selective Inhibitors of the Lysine Acetyltransferase KAT8” (Journal of Medicinal Chemistry, 2023).

As a reminder, the IC50 is the concentration that gives 50% inhibition.

The target of one data set is T1, KAT3B (Homo sapiens, UniProt Q09472).
T1 construct: KAT3B (aa 1284–1672, 1 nM); purchased Reaction Biology Corporation
T1 sequence (Q09472 1284-1672): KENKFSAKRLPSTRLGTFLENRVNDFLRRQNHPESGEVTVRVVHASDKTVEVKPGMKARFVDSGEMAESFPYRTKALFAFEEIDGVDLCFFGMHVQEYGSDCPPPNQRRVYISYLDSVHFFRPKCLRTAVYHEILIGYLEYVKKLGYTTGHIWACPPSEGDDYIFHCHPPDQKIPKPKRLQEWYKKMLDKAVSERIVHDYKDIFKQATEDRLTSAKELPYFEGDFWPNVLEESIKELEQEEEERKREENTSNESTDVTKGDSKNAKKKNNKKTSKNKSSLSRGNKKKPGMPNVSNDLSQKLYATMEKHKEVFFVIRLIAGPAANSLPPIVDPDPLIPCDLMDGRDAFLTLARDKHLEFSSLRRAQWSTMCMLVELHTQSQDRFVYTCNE
Nature of the data set: HotSpot KAT assay, KAT3B. In kind it is biochemical. The settings on record: read-out: IC50 KAT3B (1 nM); enzyme 1 nM; NI = no inhibition at 200 μM; mean ± SD of three independent experiments. On the procedure: The effects of the compounds on other KATs were determined using the HotSpot KAT assay (Reaction Biology Corporation, Malvern, PA, USA) according to the supplier’s procedure. […] Histone peptide acetylation was assessed by liquid scintillation counting using a Tri-Carb 2800TR Liquid Scintillation Analyzer (Perkin Elmer). Experiments were performed in biological triplicates. Signal reduction compared to control was plotted (as inhibition percentage) as a function of compound concentration. In cases in which an IC50 was calculated, the values were fitted by nonlinear regression (GraphPad Prism 8.0).

The target of a further data set is T2, KAT2B (Homo sapiens, UniProt Q92831).
T2 construct: KAT2B (aa 492–658, 25 nM); purchased Reaction Biology Corporation
T2 sequence (Q92831 492-658): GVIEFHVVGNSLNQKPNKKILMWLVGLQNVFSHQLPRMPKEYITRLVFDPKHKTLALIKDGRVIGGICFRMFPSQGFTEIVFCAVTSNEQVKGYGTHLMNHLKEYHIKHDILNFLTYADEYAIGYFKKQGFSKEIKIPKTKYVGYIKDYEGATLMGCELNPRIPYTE
In words: HotSpot KAT assay, KAT2B. It counts as biochemical. The settings on record: enzyme 25 nM; NI = no inhibition at 200 μM; mean ± SD of three independent experiments. On the procedure:
(§1) The effects of the compounds on other KATs were determined using the HotSpot KAT assay (Reaction Biology Corporation, Malvern, PA, USA) according to the supplier’s procedure. The recombinant catalytic domains of human KAT2A (aa 323–837, 15 nM), KAT2B (aa 492–658, 25 nM), KAT3B (aa 1284–1672, 1 nM), KAT6A (aa 488–778, 10 nM), KAT6B (aa 657–1069, 10 nM), and full length human KAT5 (25 nM) and KAT7 (25 nM) were used. Each enzyme was incubated with the relevant histone peptide [H3 peptide for KAT2A, KAT2B, KAT3B, KAT6A, and KAT7 (2.5–5 μM, depending on the KAT isoform); H2A peptide for KAT5 (1.25 μM); H4 peptide for KAT6B (2.5 μM)] as a substrate and radio-isotope-labeled [^3H]Acetyl-CoA (0.2–1.5 μM, depending on the KAT isoform) as an acetyl donor in the assay buffer [50 mM Tris–HCl (pH 8.0), 50 mM NaCl, 0.1 mM EDTA, 1 mM DTT, 0.1 mM PMSF, 1% DMSO] for 1 h at 30 °C in the presence or absence of various compounds (1% DMSO final) titrated in a 2-fold serial dilution starting at 200 μM. Histone peptide acetylation was assessed by liquid scintillation counting using a Tri-Carb 2800TR Liquid Scintillation Analyzer (Perkin Elmer). Experiments were performed in biological triplicates. Signal reduction compared to control was plotted (as inhibition percentage) as a function of compound concentration. In cases in which an IC50 was calculated, the values were fitted by nonlinear regression (GraphPad Prism 8.0).

The target in another data set is T3, KAT8 (Homo sapiens, UniProt Q9H7Z6).
T3 construct: using the previously purified KAT8 (173–458, 5 nM); 6xHis tag with TEV protease cleavage site (N, cleaved yes); made in house; host or cells: E. coli BL21(DE3)
T3 sequence (Q9H7Z6 173-458): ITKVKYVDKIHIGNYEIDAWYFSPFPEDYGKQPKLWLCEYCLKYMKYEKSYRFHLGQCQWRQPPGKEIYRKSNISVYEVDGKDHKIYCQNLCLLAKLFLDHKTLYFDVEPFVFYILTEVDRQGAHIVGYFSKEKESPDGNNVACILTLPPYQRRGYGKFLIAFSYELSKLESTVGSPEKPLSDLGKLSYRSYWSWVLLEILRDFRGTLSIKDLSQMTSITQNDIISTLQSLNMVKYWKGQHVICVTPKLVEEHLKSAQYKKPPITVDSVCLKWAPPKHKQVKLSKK
Nature of the data set: Radioactive KAT8 inhibition assay. It counts as biochemical. Conditions: read-out: IC50 KAT8 (5 nM); enzyme 5 nM; 2-fold serial dilution from 200 μM; NI = no inhibition at 200 μM; mean ± SD of three independent experiments. How it is done: Purified KAT8 was incubated with the relevant inhibitor (1% DMSO final) in a 2-fold serial dilution starting at 200 μM for 20 min at rt. Then, [^3H]Ac-CoA and biotinylated peptide were added to a total assay volume of 50 μL and the reaction mixture was incubated at rt for 4 h. The reaction was stopped, and the mixture was transferred to a 96-well streptavidin scintillant coated FlashPlate (Perkin Elmer) and incubated for 60 min at rt. The FlashPlate was washed with 0.1% Tween-20, and the liquid scintillation counting (MicroBeta Microplate Counter, Perkin Elmer) was employed to measure the radioactive signal. Experiments were performed in biological triplicates. Signal reduction compared to control was plotted (as inhibition percentage) as a function of compound concentration and fitted by nonlinear regression (GraphPad Prism 8.0) finally yielding the IC50 values.

The subject of data set [1] is human intestinal epithelial cells (InEpC). Nature of the data set: Proliferation of human intestinal epithelial cells (InEpC). It counts as cell-based. The settings on record: 25, 50, 100, 200 μM, 72 h. How it is done: (§2) For analysis of cell proliferation, cells were plated in sextuplicate on 96-well plates in complete media. After 24 h, cells were exposed to different drugs for 72 h. The inhibitory effect of different drugs was assessed by MTT (Sigma, St. Louis, MO, USA) colorimetric assays as previously reported.[67] Aqueous DMSO (0.5% v/v) was used as a control (untreated). The results are reported as “viability of drug-treated cells/viability of untreated cells” × 100 and represent the average ±SD of three independent experiments. IC50 values were using fitted by nonlinear regression using GraphPad Prism 8.0.

The test system of another data set is HCT116 cells. In words: MTT cell proliferation assay, HCT116. It counts as cell-based, human. The settings on record: 72 h treatment, MTT.
Text: (§3) Human commercially available AML U937, breast cancer MCF7, lung adenocarcinoma NCI-H460, H1299 and A-549, glioblastoma U251, B lymphocyte AHH1 cell lines were maintained in compete 10% foetal bovine serum (FBS,) RPMI 1640 (Euroclone, Milan, IT) medium. Human commercially available colon cancer HCT116 and HT29 lines and cervix adenocarcinoma HeLa cells were maintained in compete 10% FBS Dulbecco’s Modified Eagle Medium (DMEM) high glucose medium (Euroclone). L-Glutamine, FBS, and penicillin streptomycin mixture added to medium were obtained from Euroclone. All cell lines were cultured at 37 °C in a humidified atmosphere of 5% CO2:95% air and were tested for mycoplasma contamination routinely by RT-PCR.
as §2
Background: Tetrazolium assays rely on reduction of a dye to a coloured formazan, in cell work by metabolically active cells.

In another data set the test system is A549 cells. In words: MTT cell proliferation assay, A549. It counts as cell-based, human. Conditions: 72 h treatment, MTT.
Text: as §3, §2

The test system of another data set is AHH-1 cells. Nature of the data set: Proliferation of noncancer B lymphocyte AHH-1 cells. In kind it is cell-based, human. Conditions: 72 h.
Text: as §3, §2

For another data set, the system named is H1299 cells. In words: MTT cell proliferation assay, H1299. It counts as cell-based, human. The settings on record: 72 h treatment, MTT.
Text: as §3, §2

Data set [2] has as its system normal human lung fibroblasts (NHLF). In words: Proliferation of normal human lung fibroblasts (NHLF). It counts as cell-based. Conditions: 25, 50, 100, 200 μM, 72 h. On the procedure: as §2
Data set [3] has as its system U937 cells. Nature of the data set: MTT cell proliferation assay, U937. Conditions: 72 h treatment, MTT. It counts as cell-based, human.
Text: as §3, §2

In the next data set the target is T4, KAT2A (Homo sapiens, UniProt Q92830).
T4 construct: human KAT2A (aa 323–837, 15 nM); purchased Reaction Biology Corporation
T4 sequence (Q92830 323-837): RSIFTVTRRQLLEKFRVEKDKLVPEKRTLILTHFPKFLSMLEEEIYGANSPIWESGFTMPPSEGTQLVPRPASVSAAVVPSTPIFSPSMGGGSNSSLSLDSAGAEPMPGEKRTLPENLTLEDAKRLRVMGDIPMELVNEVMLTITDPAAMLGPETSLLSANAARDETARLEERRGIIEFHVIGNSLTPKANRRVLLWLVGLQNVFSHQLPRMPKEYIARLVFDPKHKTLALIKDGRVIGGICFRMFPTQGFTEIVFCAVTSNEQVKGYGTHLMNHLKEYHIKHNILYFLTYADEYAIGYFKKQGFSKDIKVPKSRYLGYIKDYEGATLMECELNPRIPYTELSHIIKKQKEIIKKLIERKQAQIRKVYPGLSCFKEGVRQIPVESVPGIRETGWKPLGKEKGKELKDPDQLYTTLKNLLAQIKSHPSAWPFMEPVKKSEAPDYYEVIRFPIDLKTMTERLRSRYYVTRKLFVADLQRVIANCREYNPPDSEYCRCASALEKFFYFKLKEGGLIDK
Nature of the data set: HotSpot KAT assay, KAT2A. It counts as biochemical. The settings on record: control compound; read-out: IC50 KAT2A (15 nM). How it is done: as §1

Data set [4] has as its system U937 cells. Further details: method as in PMID 28202522. Conditions: cited from earlier work.

In the case of `CC1=NN(c2ccc(C(N)=O)cc2)C(=O)/C1=C\c1ccc[nH]1` [Compound 37, (Z)-4-(4-((1H-Pyrrol-2-yl)methylene)-3-methyl-5-oxo-4,5-dihydro-1H-pyrazol-1-yl)benzamide], the IC50 is over 200 µM on KAT3B, over 200 µM against KAT2B and 33.2 ± 2.4 µM at KAT8.

As for `CC1=NN(c2ccc(C(=O)N(C)C)cc2)C(=O)/C1=C\c1ccc[nH]1` [Compound 38, (Z)-4-(4-((1H-Pyrrol-2-yl)methylene)-3-methyl-5-oxo-4,5-dihydro-1H-pyrazol-1-yl)-N,N-dimethylbenzamide], the IC50 at KAT3B is over 200 µM; at KAT2B, over 200 µM; on KAT8, 29.5 ± 1.8 µM.

Take `CC1=NN(c2ccc(C(=O)NCc3ccccc3)cc2)C(=O)/C1=C\c1ccc[nH]1` [Compound 39, (Z)-4-(4-((1H-Pyrrol-2-yl)methylene)-3-methyl-5-oxo-4,5-dihydro-1H-pyrazol-1-yl)-N-benzylbenzamide]: the IC50 at KAT3B is over 200 µM; at KAT2B, over 200 µM; in the data set on AHH-1 cells (Homo sapiens, AHH-1, NI = no inhibition at 200 µM), over 200 µM; on KAT8, over 200 µM. For the same compound, the “effect on proliferation of InEpC” value in data set [1] is “did not significantly affect the proliferation”. The “IC50 HCT116, 72 h” value in the data set with HCT116 cells is reported as “No inhibition at 100 µM”. Moreover, in the data set with A549 cells, the “IC50 A549, 72 h” value is “No inhibition at 100 µM”. Also, in the data set with AHH-1 cells (25, 50, 100, 200 μM), the “effect on proliferation of AHH-1 cells” value is reported as “did not significantly affect the proliferation”. In addition, the “IC50 H1299, 72 h” value in the data set on H1299 cells was “No inhibition at 100 µM”. In addition, the “effect on proliferation of NHLF” value in [2] is recorded as “did not significantly affect the proliferation”. Also, in the data set on U937 cells [3], the “IC50 U937, 72 h” value is on record as “No inhibition at 100 µM”.

Regarding `CCCCCCCCCCCCCCCc1cccc(O)c1C(=O)O` [I (AA), anacardic acid, reference compound], the 50% inhibitory concentration (IC50) on KAT2A was 42.1 µM; on KAT3B, 22.9 ± 1.3 µM; at KAT2B, 39.7 ± 1.1 µM.

Turning to `CCCCCCCc1ccc(CCc2cccc(O)c2C(=O)O)cc1` [III (MG149), reference compound], the values for the IC50 on KAT3B, against KAT2B and on KAT8 were 22.3 ± 1.1 µM, over 200 µM and 20.3 ± 1.3 µM, respectively. For the same compound, the “antiproliferative activity in U937 and other AML cell lines” value with U937 cells [4] is recorded as “exerted antiproliferative activity”.
